Measured values as given in patent publication US20230286956A1 (DUKSUNG WOMEN'S UNIVERSITY INDUSTRY-ACADEMIC COOPERATION …, priority 2020, published 2023).

Key:
[1] = test system: substantia nigra dopaminergic neurons; assay: Inhibition of dopaminergic nerve cell death in MPTP animal model of Parkinson's disease (tyrosine hydroxylase immunostaining); assay type: in vivo, C57B16/J mice; conditions: Evaluations 3 and 4: intraperitoneal 5 mg/kg, 1 week before and after MPTP
Description: The dopaminergic neuronal cell protecting effect of the compound of the present invention was evaluated in an animal model of Parkinson’s disease. The animal model used was 7-week-old C57B16/J mice (23 to 25 g), to which MPTP (15 mg/kg) was administered 4 times at 1.5 hour intervals. For 1 to 2 days after administration, behavior was noticeably slowed and gradually recovered. In 1 week after MPTP administration, behavior was almost normalized to a level similar to that of normal mice.
In order to evaluate the efficacy of the compounds of the present invention, Compounds 1aaa (Compound 1), lace (Compound 27), 1ahe (Compound 44) and 1aje (Compound 62) were each administered at a dose of 5 mg/kg for 1 week, then MPTP (15 mg/kg x 4 times) was injected. These compounds were additionally administered for 1 week, and then dopamine innervation in the substantia nigra region was analyzed through immunostaining.
Specifically, selegiline, 1aaa, lace, 1ahe, 1aje, and apocynin were administered at a dose of 5 mg/kg for 7 days, then MPTP (15 mg/kg x 4 times) was administered to induce damage to dopaminergic neurons. After 7 days of additional administration of the compounds at the same dose, the animals were sacrificed. Immunostaining was performed using tyrosine hydroxylase antibody to measure the survival rate of substantia nigra dopaminergic neurons. After immunostaining, the number of surviving dopaminergic neurons was analyzed. The results are illustrated in FIG. 8.
In order to evaluate the efficacy of the compounds of the present invention, Compounds 1abv (Compound 22), 1abw (Compound 23), and 1ahs (Compound 52) were each intraperitoneally administered at a dose of 5 mg/kg for 1 week or orally administered at a dose of 50 mg/kg, then MPTP (15 mg/kg x 4 times) was injected. These compounds were additionally administered for 1 week, and then dopamine innervation in the substantia nigra region was analyzed through immunostaining. The results are illustrated in FIG. 9.
(§1) In order to evaluate the dopaminergic neuroprotective effect of the compounds of the present invention, Compounds 1aja (Compound 59) and 1abk (Compound 17) were each intraperitoneally administered at a dose of 5 mg/kg for 1 week, then MPTP (15 mg/kg x 4 times) was injected. These compounds were additionally administered for 1 week. After immunostaining using brain slices from each group, surviving dopaminergic neurons were photographed under a microscope and analyzed. The results are illustrated in FIG. 10.
as §1, with “1ajs” for “1aja”, “63), 1ajy (Compound 67),” for “59)”, “1aqj” for “1abk”, “85)” for “17)”, “11.” for “10.”

[2] = Single acute toxicity evaluation 2 (2000 mg/kg oral); assay type: in vivo, ICR mice
Description: Acute toxicity properties after single administration of the compounds of the present invention were evaluated in an animal model.

in vivo = assay: in vivo; parameters: species or system SD rats; conditions: SD, rat, po
Description: The bioavailability (BA) and pharmacokinetic properties of the compounds of the present invention were evaluated in an animal model. The compounds were administered to 8-week-old SD rats (300 to 350 g) at a dose of 2 to 5 mg/kg through oral and intravenous administration routes. After administration, blood was collected at regular time intervals and the time course of blood concentration was analyzed.

[3] = test system: wild-type red mold strain GZ3639; assay: Inhibition of spore germination / reactive oxygen species generation through NOX enzyme inhibition in red mold; assay type: cell-based; conditions: 24 h, read-out: IC50 (µM), compound concentration at which the spore germination inhibition rate was 50%
Description: When NADPH oxidase (NOX), which is involved in the generation of reactive oxygen species in red mold, is inhibited, normal mycelial growth is inhibited, abnormal form of monocyclic conidia is formed, and germination is inhibited. The abnormal phenotype caused by the reduction of reactive oxygen species in red mold can be easily observed under an optical microscope. Through this, the ability to inhibit generation of reactive oxygen species through NOX inhibition was evaluated.
Specifically, for the evaluation of compound activity, 0.1 mM of the compound was added to a minimum medium (MM20) spore suspension diluted to ⅕. Spores ([…]) of wild-type red mold strain GZ3639 were inoculated into the medium and cultured at 25° C. for 24 h, followed by microscopic observation. Compounds having a germination inhibition rate and microcycle conidiation to be 50% or more of those in normal germination were selected, and their activities were evaluated at concentrations of 50 µM, 25 µM, and 10 µM. At this time, the activity of substances having a germination inhibition rate of 95% at 10 µM was further evaluated at concentrations of 5 µM, 1 µM, 0.5 µM, and 0.1 µM. Based on the result of this evaluation, the compound concentration (inhibitory concentration 50%, IC50) at which the spore germination inhibition rate was 50% was determined.

SMILES | IC50 [3] [µM] | other results
Cc1ccc(N2C(=O)C(=Cc3ccc(N4CCCC4)cc3)N(C)C2=[Se])cc1 [Compound 1abk, 1-methyl-5-(4-pyrrolidine-1-yl)benzylidene-2-selenoxo-3-(4-tolyl)imidazolidine-4-on] | – | survival rate of dopaminergic neurons, of that in the control group [1]: 66%
CN1C(=[Se])N(CCc2ccccc2)C(=O)C1=Cc1ccc(N2CCOCC2)cc1 [Compound 1ahs] | – | change in body weight ([2]; day 0): 100; change in body weight ([2]; day 2): 97.6; change in body weight ([2]; day 4): 100.0; change in body weight ([2]; day 8): 103.8; change in body weight ([2]; day 10): 104.5; change in body weight ([2]; day 14): 105.0
CCCCCCN1C(=O)C(=Cc2ccc(O)cc2O)N(C)C1=[Se] [Compound 1aja] | – | change in body weight ([2]; day 0): 100; change in body weight ([2]; day 2): 95.6; change in body weight ([2]; day 4): 102.8; change in body weight ([2]; day 8): 105.8; change in body weight ([2]; day 10): 107.8; change in body weight ([2]; day 14): 107.6; survival rate of dopaminergic neurons, of that in the control group [1]: 76%
CN1C(=[Se])N(CCCN2CCOCC2)C(=O)C1=Cc1ccc(Cl)cc1 [Compound 1aqj] | – | change in body weight ([2]; day 0): 100; change in body weight ([2]; day 2): 94.6; change in body weight ([2]; day 4): 99.8; change in body weight ([2]; day 8): 104.8; change in body weight ([2]; day 10): 105.9; change in body weight ([2]; day 14): 106.6; survival rate of dopaminergic neurons, of that in the control group [1]: 75.1%
Cc1ccc(N2C(=O)/C(=C\c3ccc(N4CCN(CCO)CC4)cc3)N(C)C2=[Se])cc1 [Compound 21, 5-(4-(4-(2-hydroxyethyl)piperazine-1-yl)benzylidene)-1-methyl-2-selenoxo-3-(4-tolyl)imidazoline-4-on] | – | bioavailability (in vivo): 11%
CCCCCCN1C(=O)/C(=C\c2ccc(NCCOCCF)cc2)N(C)C1=[Se] [Compound 67, 5-(4-((2-(2-fluoroethoxy)ethyl)amino)benzylidene)-3-hexyl-1-methyl-2-selenoxoimidazolidine-4-on] | 0.45 | –
CN1C(=[Se])N(C2CCCC2)C(=O)/C1=C\c1ccc(O)cc1O [Compound 68, 3-cyclopentyl-5-(2,4-dihydroxybenzylidene)-1-methyl-2-selenoxoimidazolidine-4-on] | 3 | –
CN1C(=[Se])N(C2CCCC2)C(=O)/C1=C\c1cccc(O)c1O [Compound 69, 3-cyclopentyl-5-(2,3-dihydroxybenzylidene)-1-methyl-2-selenoxoimidazolidine-4-on] | 14 | –
CN1C(=[Se])N(C2CCCC2)C(=O)/C1=C\c1ccc(N(C)C)cc1 [Compound 70, 3-cyclopentyl-5-(4-(dimethylamino)benzylidene)-1-methyl-2-selenoxoimidazolidine-4-on] | 26 | –
CN1C(=[Se])N(C2CCCC2)C(=O)/C1=C\c1ccc(O)c(O)c1 [Compound 71, 3-cyclopentyl-5-(3,4-dihydroxybenzylidene)-1-methyl-2-selenoxoimidazolidine-4-on] | 26 | –
CN1C(=[Se])N(c2ccc(F)cc2)C(=O)/C1=C\c1ccc(N(C)C)cc1 [Compound 75, 5-(4-(dimethylamino)benzylidene)-3-(4-fluorophenyl)-1-methyl-2-selenoxoimidazolidine-4-on] | 23 | –
CN1C(=[Se])N(CCCN2CCOCC2)C(=O)/C1=C\c1ccc(Cl)cc1 [Compound 85, 5-(4-chlorobenzylidene)-1-methyl-3-(3-morpholinopropyl)-2-selenoxoimidazolidine-4-on] | 5 | –
CN1C(=[Se])N(CCCCCCF)C(=O)/C1=C\c1cc(O)cc(O)c1 [Compound 88] | 18 | –
CN1C(=[Se])N(CCCCCF)C(=O)/C1=C\c1ccc(O)cc1O [Compound 89, 5-(2,4-dihydroxybenzylidene)-3-(5-fluoropentyl)-1-methyl-2-selenoxoimidazolidine-4-on] | 13 | –
CCCCCN1C(=O)/C(=C\c2ccc(O)cc2O)N(C)C1=[Se] [Compound 93, 5-(2,4-dihydroxybenzylidene)-1-methyl-3-pentyl-2-selenoxoimidazolidine-4-on] | 2.9 | –
CCN1C(=[Se])N(c2ccccc2)C(=O)/C1=C\c1ccc(O)cc1O [Compound 95, 5-(2,4-dihydroxybenzylidene)-1-ethyl-3-phenyl-2-selenoxoimidazolidine-4-on] | 22 | –
CCN1C(=[Se])N(c2ccccc2)C(=O)/C1=C\c1cccc(O)c1O [Compound 96, 5-(2,3-dihydroxybenzylidene)-1-ethyl-3-phenyl-2-selenoxoimidazolidine-4-on] | 44 | –
CCc1ccc(N2C(=O)/C(=C\c3ccc(Br)cc3)N(CC)C2=[Se])cc1 [Compound 101, 5-(4-bromobenzylidene)-1-ethyl-3-(4-ethylphenyl)-2-selenoxoimidazolidine-4-on] | 45 | –
CCc1ccc(N2C(=O)/C(=C\c3ccc(N4CCCC4)cc3)N(CC)C2=[Se])cc1 [Compound 102, 1-ethyl-3-(4-ethylphenyl)-5-(4-pyrrolidine-1-yl)benzylidene-2-selenoxoimidazolidine-4-on] | 40 | –
O=C1/C(=C\c2cccc(O)c2O)N(Cc2ccccc2)C(=[Se])N1c1ccccc1 [Compound 104, 1-benzyl-5-(2,3-dihydroxybenzylidene)-3-phenyl-2-selenoxoimidazolidine-4-on] | 23 | –
O=C1/C(=C\c2ccc(O)c(O)c2)N(Cc2ccccc2)C(=[Se])N1c1ccccc1 [Compound 106, 1-benzyl-5-(3,4-dihydroxybenzylidene)-3-phenyl-2-selenoxoimidazolidine-4-on] | 34 | –
O=C1/C(=C\c2cc(O)cc(O)c2)N(Cc2ccccc2)C(=[Se])N1c1ccccc1 [Compound 107, 1-benzyl-5-(3,5-dihydroxybenzylidene)-3-phenyl-2-selenoxoimidazolidine-4-on] | 23 | –
CCc1ccc(N2C(=O)/C(=C\c3ccc(O)cc3O)N(Cc3ccccc3)C2=[Se])cc1 [Compound 108, 1-benzyl-5-(2,4-dihydroxybenzylidene)-3-(4-ethylphenyl)-2-selenoxoimidazolidine-4-on] | 22 | –
CCc1ccc(N2C(=O)/C(=C\c3ccc(O)c(O)c3)N(Cc3ccccc3)C2=[Se])cc1 [Compound 109, 1-benzyl-5-(3,4-dihydroxybenzylidene)-3-(4-ethylphenyl)-2-selenoxoimidazolidine-4-on] | 29 | –
CCc1ccc(N2C(=O)/C(=C\c3cc(O)cc(O)c3)N(Cc3ccccc3)C2=[Se])cc1 [Compound 110, 1-benzyl-5-(3,5-dihydroxybenzylidene)-3-(4-ethylphenyl)-2-selenoxoimidazolidine-4-on] | 23 | –
O=C1/C(=C\c2cccc(O)c2O)N(Cc2ccccc2)C(=[Se])N1c1ccc(Cl)cc1 [Compound 111, 1-benzyl-3-(4-chlorophenyl)-5-(2,3-dihydroxybenzylidene)-2-selenoxoimidazolidine-4-on] | 26 | –
O=C1/C(=C\c2ccc(O)c(O)c2)N(Cc2ccccc2)C(=[Se])N1c1ccc(Cl)cc1 [Compound 112, 1-benzyl-3-(4-chlorophenyl)-5-(3,4-dihydroxybenzylidene)-2-selenoxoimidazolidine-4-on] | 31 | –
